Assay [1] deals with Dual specificity protein kinase CLK2 (Homo sapiens, UniProt P49760). As to conditions: at 10 µM.
In assay [2] the target is Vascular endothelial growth factor receptor 3 (Homo sapiens, UniProt P35916). The note with it: at 10 µM.
Assay [3] concerns the target Serine/threonine-protein kinase PAK 3 (Homo sapiens) (UniProt O75914). As to conditions: at 10 µM.
Assay [4] concerns the target T1, Alpha-2C adrenergic receptor (Homo sapiens) (UniProt P18825).
T1 sequence (whole entry): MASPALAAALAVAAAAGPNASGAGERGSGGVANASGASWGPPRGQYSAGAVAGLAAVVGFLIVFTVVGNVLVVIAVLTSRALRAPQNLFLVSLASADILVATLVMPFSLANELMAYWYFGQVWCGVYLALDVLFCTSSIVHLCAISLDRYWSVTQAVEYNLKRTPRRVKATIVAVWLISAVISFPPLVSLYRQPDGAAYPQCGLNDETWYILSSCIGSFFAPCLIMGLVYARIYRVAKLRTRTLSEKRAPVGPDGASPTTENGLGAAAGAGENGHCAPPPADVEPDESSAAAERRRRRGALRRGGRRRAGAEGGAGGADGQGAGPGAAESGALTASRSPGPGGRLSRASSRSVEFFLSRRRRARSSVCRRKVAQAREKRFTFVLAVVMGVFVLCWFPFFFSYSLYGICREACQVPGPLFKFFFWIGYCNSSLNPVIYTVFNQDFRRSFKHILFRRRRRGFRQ
The experiment in a line: Selectivity interaction (Panel of kinases, GPCRs, ion channels and transporters (enzymatic assay)) EUB0000223bCl ADRA2C.

Assay [5] addresses Beta-2 adrenergic receptor (Homo sapiens, UniProt P07550). Nature of the assay: Selectivity interaction (Panel of kinases, GPCRs, ion channels and transporters (enzymatic assay)) EUB0000223bCl ADRB2.
Assay [6] deals with Cannabinoid receptor 2 (Homo sapiens) (UniProt P34972). Nature of the assay: Selectivity interaction (Panel of non-epigenetic targets (kinases, GPCRs, ion channels, and transporters, Eurofins) ) EUB0000271b CNR2. The note with it: at 1 µM.
Assay [7] concerns the target T2, Rhodopsin kinase GRK7 (Homo sapiens) (UniProt Q8WTQ7).
T2 sequence (whole entry): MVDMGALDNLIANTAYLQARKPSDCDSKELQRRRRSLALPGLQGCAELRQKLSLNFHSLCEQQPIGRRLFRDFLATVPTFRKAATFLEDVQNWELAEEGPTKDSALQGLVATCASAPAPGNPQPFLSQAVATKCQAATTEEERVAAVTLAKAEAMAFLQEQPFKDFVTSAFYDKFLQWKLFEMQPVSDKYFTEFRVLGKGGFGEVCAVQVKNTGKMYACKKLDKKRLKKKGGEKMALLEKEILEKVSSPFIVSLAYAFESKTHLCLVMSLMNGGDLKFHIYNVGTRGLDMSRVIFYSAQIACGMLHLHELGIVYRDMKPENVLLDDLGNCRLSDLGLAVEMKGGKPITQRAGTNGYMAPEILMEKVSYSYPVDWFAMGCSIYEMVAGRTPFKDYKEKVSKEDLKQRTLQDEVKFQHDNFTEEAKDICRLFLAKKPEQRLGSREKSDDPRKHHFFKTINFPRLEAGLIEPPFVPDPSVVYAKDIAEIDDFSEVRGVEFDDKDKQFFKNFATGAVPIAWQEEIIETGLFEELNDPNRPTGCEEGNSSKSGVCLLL
Nature of the assay: Selectivity interaction (KinomeScan (DiscoverX)) EUB0000045b GRK7.

For assay [8], the target named is Serine/threonine-protein kinase SBK1 (Homo sapiens) (UniProt Q52WX2). The experiment in a line: Selectivity interaction (KinomeScan (DiscoverX)) EUB0000607a SBK1. The note with it: at 10 µM.
Assay [9] has as its target Mitogen-activated protein kinase 9 (Homo sapiens, UniProt P45984). Nature of the assay: Selectivity interaction (ActivX KiNativ screen (kinase selectivity in THP-1 cell lysates)) EUB0000639a MAPK9. As to conditions: lysate. The class given is subcellular.
The subject of assay [10] is Tyrosine-protein kinase ABL1 (Homo sapiens), P00519 [F317I]. Nature of the assay: Selectivity interaction (KinomeScan (DiscoverX)) EUB0000229b ABL1. The note with it: at 1 µM.
In assay [11] the target is DNA-dependent protein kinase catalytic subunit (Homo sapiens) (UniProt P78527). Nature of the assay: Selectivity interaction (ActivX KiNativ screen (ex vivo kinase selectivity in human PBMCs)) EUB0001619a PRKDC. The class given is cell-based. As to conditions: PBMC, at 1 µM.
The target in assay [12] is Wee1-like protein kinase (Homo sapiens) (UniProt P30291). Nature of the assay: Selectivity interaction (Kinase panel (KiNativ target engagement assay in Jurkat cells)) EUB0001635a WEE1. The class given is cell-based. The note with it: at 1 µM.
For assay [13], the target named is Activin receptor type-1-like (Homo sapiens) (UniProt P37023). The experiment in a line: Selectivity interaction (KinomeScan (DiscoverX)) EUB0000618a ACVRL1. The note with it: at 10 µM.
The target in assay [14] is T3, Serine/threonine-protein kinase NLK (Homo sapiens) (UniProt Q9UBE8).
T3 sequence (whole entry): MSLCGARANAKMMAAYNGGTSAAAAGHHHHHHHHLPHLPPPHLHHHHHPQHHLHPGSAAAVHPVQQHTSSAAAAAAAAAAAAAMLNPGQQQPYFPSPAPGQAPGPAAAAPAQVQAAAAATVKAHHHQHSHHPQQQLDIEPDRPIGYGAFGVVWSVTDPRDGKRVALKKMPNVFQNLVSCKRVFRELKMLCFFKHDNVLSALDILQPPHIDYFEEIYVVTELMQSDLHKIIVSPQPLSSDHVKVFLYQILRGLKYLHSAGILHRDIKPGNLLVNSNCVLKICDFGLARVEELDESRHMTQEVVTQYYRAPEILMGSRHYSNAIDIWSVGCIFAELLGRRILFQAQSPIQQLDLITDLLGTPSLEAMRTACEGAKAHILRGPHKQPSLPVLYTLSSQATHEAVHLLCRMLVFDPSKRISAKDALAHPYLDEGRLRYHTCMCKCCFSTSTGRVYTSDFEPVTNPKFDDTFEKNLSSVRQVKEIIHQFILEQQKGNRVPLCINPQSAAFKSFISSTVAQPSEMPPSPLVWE
Nature of the assay: Selectivity interaction (KinomeScan (DiscoverX)) EUB0000618a NLK. The note with it: at 10 µM.

Where only a bound is given, the exact number is not on record here.

Mitogen-activated protein kinase 9, sequence (P45984 whole entry, looked up): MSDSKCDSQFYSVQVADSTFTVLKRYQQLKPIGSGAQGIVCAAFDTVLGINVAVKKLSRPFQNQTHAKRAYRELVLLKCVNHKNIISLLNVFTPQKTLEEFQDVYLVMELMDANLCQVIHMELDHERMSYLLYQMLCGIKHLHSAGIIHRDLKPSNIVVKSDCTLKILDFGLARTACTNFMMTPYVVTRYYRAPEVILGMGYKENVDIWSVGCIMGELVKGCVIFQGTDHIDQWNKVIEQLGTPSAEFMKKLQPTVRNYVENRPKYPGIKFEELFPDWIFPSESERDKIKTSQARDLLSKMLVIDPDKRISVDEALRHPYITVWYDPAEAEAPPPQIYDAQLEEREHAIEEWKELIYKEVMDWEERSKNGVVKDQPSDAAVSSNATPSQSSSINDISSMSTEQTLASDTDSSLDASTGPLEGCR
Tyrosine-protein kinase ABL1 (Homo sapiens), P00519 [F317I], sequence (P00519 whole entry F317I): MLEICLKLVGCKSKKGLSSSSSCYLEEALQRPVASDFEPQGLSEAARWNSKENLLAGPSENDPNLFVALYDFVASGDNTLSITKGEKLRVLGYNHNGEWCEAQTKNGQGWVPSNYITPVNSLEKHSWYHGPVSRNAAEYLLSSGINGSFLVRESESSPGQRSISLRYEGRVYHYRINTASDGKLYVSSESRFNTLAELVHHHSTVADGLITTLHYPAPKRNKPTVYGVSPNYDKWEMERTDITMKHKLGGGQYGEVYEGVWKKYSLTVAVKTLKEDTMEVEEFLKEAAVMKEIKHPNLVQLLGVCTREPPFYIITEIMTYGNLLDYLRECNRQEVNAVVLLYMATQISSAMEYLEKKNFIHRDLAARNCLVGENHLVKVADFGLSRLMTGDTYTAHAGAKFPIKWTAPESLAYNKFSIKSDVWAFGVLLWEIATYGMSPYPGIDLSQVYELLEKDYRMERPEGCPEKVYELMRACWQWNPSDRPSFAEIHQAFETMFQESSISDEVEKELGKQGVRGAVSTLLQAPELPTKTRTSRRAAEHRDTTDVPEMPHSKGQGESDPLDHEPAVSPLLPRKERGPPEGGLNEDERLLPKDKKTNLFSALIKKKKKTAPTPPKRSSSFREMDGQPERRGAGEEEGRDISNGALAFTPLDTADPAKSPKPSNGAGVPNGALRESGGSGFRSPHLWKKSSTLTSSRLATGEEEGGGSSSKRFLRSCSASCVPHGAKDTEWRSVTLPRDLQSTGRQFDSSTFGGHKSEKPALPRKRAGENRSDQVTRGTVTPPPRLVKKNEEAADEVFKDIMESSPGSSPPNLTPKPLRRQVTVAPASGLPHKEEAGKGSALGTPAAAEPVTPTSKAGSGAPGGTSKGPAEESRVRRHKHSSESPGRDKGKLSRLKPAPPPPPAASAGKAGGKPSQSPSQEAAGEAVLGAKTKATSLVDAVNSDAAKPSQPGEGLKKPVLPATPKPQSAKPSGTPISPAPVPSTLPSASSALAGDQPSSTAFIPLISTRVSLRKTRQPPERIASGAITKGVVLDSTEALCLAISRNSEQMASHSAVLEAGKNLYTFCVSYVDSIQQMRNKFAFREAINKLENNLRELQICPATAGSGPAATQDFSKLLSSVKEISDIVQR
Serine/threonine-protein kinase PAK 3 (Homo sapiens), sequence (O75914 whole entry, looked up): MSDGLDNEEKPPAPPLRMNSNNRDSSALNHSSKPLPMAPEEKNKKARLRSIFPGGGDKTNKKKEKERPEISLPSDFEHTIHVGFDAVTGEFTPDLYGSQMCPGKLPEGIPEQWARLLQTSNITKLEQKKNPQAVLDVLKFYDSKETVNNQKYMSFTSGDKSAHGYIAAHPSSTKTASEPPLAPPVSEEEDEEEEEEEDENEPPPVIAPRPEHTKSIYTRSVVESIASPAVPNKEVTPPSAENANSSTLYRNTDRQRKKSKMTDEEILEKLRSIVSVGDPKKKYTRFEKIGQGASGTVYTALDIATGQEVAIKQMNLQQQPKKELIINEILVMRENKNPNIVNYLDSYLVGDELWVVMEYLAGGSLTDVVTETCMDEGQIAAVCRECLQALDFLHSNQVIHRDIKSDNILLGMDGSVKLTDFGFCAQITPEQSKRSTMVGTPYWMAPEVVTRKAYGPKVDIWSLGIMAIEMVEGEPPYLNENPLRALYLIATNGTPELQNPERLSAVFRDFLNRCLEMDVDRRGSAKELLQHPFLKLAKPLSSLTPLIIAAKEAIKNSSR
Beta-2 adrenergic receptor, sequence (P07550 whole entry, looked up): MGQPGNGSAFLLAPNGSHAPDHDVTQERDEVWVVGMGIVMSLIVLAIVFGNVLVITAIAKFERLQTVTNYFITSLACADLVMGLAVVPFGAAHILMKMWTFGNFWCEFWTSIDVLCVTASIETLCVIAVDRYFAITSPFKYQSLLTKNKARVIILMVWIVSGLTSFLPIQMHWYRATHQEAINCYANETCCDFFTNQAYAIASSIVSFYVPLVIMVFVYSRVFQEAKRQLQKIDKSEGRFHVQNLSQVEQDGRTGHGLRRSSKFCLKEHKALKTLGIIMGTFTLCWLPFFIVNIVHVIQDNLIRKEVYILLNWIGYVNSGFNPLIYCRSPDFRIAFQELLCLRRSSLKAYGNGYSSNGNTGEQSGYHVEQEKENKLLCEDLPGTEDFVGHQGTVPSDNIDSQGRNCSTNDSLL
Serine/threonine-protein kinase SBK1 (Homo sapiens), sequence (Q52WX2 whole entry): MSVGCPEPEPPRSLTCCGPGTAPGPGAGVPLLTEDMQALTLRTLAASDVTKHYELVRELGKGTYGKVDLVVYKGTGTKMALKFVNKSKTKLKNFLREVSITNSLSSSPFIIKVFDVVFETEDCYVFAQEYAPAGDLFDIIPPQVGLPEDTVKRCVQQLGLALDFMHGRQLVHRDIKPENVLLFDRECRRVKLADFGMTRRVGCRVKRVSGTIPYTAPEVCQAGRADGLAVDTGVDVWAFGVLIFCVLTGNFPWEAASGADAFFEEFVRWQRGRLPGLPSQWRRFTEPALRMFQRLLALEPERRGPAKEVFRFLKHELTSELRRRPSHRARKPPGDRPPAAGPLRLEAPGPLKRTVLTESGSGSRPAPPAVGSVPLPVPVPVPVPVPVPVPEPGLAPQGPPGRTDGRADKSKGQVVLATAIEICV
Vascular endothelial growth factor receptor 3, sequence (P35916 whole entry): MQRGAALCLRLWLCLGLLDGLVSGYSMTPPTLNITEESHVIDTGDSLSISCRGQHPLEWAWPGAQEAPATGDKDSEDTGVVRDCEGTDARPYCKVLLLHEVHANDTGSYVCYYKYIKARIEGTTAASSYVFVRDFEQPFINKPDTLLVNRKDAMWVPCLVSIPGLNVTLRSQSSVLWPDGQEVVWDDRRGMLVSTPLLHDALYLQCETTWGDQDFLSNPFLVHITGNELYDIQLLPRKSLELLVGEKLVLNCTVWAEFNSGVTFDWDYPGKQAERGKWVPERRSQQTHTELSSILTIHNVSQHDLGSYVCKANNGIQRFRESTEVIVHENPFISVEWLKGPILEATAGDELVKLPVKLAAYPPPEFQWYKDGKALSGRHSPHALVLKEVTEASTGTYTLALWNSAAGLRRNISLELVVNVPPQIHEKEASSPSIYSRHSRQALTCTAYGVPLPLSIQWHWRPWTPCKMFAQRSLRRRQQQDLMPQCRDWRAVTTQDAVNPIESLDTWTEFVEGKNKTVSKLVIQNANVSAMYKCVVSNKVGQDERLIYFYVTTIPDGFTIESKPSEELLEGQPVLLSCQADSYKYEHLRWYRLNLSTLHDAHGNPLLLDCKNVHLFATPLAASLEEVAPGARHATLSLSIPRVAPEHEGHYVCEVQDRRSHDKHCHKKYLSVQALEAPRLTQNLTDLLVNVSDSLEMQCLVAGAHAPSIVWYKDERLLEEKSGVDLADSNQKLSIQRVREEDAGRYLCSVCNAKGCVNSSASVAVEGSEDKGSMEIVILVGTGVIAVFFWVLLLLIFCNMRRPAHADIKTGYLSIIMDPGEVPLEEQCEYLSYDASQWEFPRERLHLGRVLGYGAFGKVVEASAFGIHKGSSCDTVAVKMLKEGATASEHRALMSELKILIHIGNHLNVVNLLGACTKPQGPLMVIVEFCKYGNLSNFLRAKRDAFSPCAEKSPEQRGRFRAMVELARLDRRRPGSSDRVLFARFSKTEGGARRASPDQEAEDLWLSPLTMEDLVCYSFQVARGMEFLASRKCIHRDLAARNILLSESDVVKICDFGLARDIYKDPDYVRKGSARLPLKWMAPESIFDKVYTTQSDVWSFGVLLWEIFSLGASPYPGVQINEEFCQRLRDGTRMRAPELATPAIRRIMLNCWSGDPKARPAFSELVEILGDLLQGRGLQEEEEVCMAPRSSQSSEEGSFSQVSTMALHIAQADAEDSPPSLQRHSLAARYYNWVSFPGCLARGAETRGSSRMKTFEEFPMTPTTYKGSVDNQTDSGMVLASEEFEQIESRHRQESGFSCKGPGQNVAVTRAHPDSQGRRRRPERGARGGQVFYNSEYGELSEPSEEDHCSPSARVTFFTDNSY
Dual specificity protein kinase CLK2, sequence (P49760 whole entry, looked up): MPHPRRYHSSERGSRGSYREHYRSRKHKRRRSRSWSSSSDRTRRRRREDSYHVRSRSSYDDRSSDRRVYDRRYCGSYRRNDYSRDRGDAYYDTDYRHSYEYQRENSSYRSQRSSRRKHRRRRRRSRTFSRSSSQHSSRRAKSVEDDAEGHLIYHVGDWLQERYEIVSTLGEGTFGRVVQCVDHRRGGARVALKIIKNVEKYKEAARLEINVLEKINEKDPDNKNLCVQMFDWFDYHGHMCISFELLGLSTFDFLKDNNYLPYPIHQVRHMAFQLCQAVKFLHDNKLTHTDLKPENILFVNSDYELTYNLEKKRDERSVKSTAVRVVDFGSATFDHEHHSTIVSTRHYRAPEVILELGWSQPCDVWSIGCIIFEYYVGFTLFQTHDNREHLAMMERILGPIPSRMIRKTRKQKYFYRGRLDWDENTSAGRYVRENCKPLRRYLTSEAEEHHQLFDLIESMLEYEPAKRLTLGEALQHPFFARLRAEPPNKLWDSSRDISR

Regarding `Cc1cc([C@@H](C)Nc2ccccc2C(=O)O)c2nc(N3CCOCC3)cc(=O)n2c1` [AZD-6482], the results for the % of control in assay [1] and in assay [2] were 70% and 95%, respectively.

`CCN(CC)CCCCNc1ncc2cc(-c3cc(OC)cc(OC)c3)c(NC(=O)NC(C)(C)C)nc2n1` gave a % of control in assay [3] of 100%.

For `COc1cc(C(=O)N2CC[C@@H](O)[C@@H](N)C2)cc2nc(-c3cc4ccccc4n3CC3CC3)n(C)c12`, the pXC50 in assay [4] and in assay [5] was < 4.5 M each time.

For the compound `Cc1cc(C)cc([C@@H]2c3cc(C)ccc3NC(=O)CN2C(=O)c2ccc(Br)s2)c1`, the % of inhibition in [6] is -19%.

For the compound `C=CC(=O)Nc1cc(-n2c(=O)ccc3cnc4ccc(-c5ccc(NS(C)(=O)=O)cc5)cc4c32)ccc1C`, the figures for the % of control in assay [7] (at 1 µM) and in assay [7] (at 10 µM) were 75% and 84%, respectively.

Consider `CNC(=O)Nc1ccc(-c2nc(N3CC4CCC(C3)O4)c3cnn(C4CCC5(CC4)OCCO5)c3n2)cc1`, for which the % of control in assay [8] turned out to be 100%.

For the compound `CC[C@@H]1[C@H](F)C(=O)N[C@@H]1COc1nccc2cc(C(N)=O)c(OC)cc12` [ZIMLOVISERTIB], the % of inhibition in assay [9] (at 0.01 µM) was 13.3%; in assay [9] (at 0.04 µM), -1.4%; in [9] (at 0.2 µM), 1.6%; in [9] (at 1 µM), 27.7%; in assay [9] (at 5 µM), 57.5%.

Regarding `COc1cc(N(C)c2ccnc3ccc(C(F)(F)F)cc23)cc(OC)c1OC`, the % binding in assay [10] was 96%.

Consider `N#Cc1cccc(-c2c[nH]c3ncnc(N4CCOCC4)c23)c1`, for which the % of inhibition in assay [11] is -4%.

With `C=CC(=O)Nc1ccc(C(=O)Nc2[nH]nc3c2CN(C(=O)N[C@H](CN(C)C)c2ccccc2)C3(C)C)cc1`, the % of engagement in assay [12] came out at 24%.

For the compound `O[C@H]1CC[C@H](Nc2ncc3nc(Nc4c(F)cc(F)cc4F)n([C@H]4CCOC4)c3n2)CC1`, the results for the % of control in assay [13] and in [14] were 72% and 5.2%, respectively.

Source of the values: ChEMBL document CHEMBL5465560, “Selectivity Literature for EUbOPEN Chemogenomic Library” (2024).
